Values quoted from earlier work in paper PMC6530907 (Biochemistry, 2019).

Biological target: YbtE
Conditions: cited from earlier work

Nc1ncnc2c1ncn2[C@@H]1O[C@H](COS(=O)(=O)NC(=O)c2ccccc2O)[C@@H](O)[C@H]1O [compound 1, 5´-O-[N-salicylsulfamoyl]adenosine]
Ki: 0.7 nM
